Measurements reported in patent US20130317048A1, “COMBINATION COMPRISING PACLITAXEL FOR TREATING OVARIAN CANCER” (Actelion Pharmaceuticals Ltd., priority 2008, published 2013).

How the values were obtained:
ovarian cancer = details: combined with paclitaxel; cited from earlier work
ovarian tumor cells = details: in vitro; cited from earlier work
IGROV cells = assay: Human IGROV tumor growth inhibition assay in mice; format: in vivo; details: female nude mice i.p. IGROV; after 4 weeks of treatment; paclitaxel 5 mg/kg once a week i.p.; CF(I) 50 mg/kg once a day oral
Method: (§1) The vehicle solution is the same as that described for the “Human SKOV3ip1 tumor growth inhibition assay in mice” (see above).
(§2) 43 female nude mice are injected i.p. with 10^6 IGROV cells into the peritoneal cavity. Ten days later, the tumor weight is evaluated in three of the mice. Treatment with a suspension of the compound of formula (I) in the vehicle solution (10 mice), paclitaxel diluted 1:6 in phosphate buffered saline (PBS) for i.p. injections (10 mice), a suspension of the compound of formula (I) in the vehicle solution as well as paclitaxel diluted 1:6 in PBS for i.p. injections (10 mice), or the vehicle solution only (10 mice), the vehicle solution being as described above, is administered to the mice using the following doses, frequencies and routes: • paclitaxel: 5 mg/kg (125 μg paclitaxel in 200 μL PBS per mouse), once a week, i.p. route; • compound of formula (I): 50 mg/kg (as suspension in the vehicle solution at a concentration of up to 25 mg/mL), once a day, oral route.
After 4 weeks of treatment, the tumor incidence and weight are determined in each of the mice.

HeyA8-MDR cells = assay: Multi-drug resistant human ovarian HeyA8-MDR tumor growth inhibition assay in mice; format: in vivo; details: female nude mice i.p. HeyA8-MDR; after 4 weeks of treatment; paclitaxel 5 mg/kg once a week i.p.; CF(I) 50 mg/kg once a day oral
Method: as §1
43 female nude mice are injected i.p. with 10^6 HeyA8-MDR cells into the peritoneal cavity. Ten days later, the tumor weight is evaluated in three of the mice. Mice groups and treatments (doses, frequencies and routes) for the mice groups are the same as those described in the experimental procedure for the “Human IGROV tumor growth inhibition assay in mice” (see above). After 4 weeks of treatment, the tumor incidence and weight are determined in each of the mice.

SKOV3ip1 cells = assay: Human SKOV3ip1 tumor growth inhibition assay in mice; format: in vivo; details: mice i.p. SKOV3ip1, after one month of treatment, paclitaxel 5 mg/kg once a week i.p., CF(I) 100 mg/kg once a day oral
Method: An aqueous 0.5% (by weight) solution of methylcellulose is prepared by stiffing the appropriate quantity of methylcellulose in the appropriate quantity of water for 4 hours. This solution can be prepared up to 3 days in advance. On the day of the experiment, 0.05% (by volume) of Tween 80 is dissolved in the methylcellulose solution previously obtained to yield the vehicle solution.
as §2, with “43 mice are” for “43 female nude mice are”, “with 10^6 SKOV3ip1 cells. Ten days” for “with 10^6 IGROV cells into the peritoneal cavity. Ten days”, “mice), paclitaxel (Mead Johnson, Princeton, N.J., USA) diluted 1:6” for “mice), paclitaxel diluted 1:6”, “PBS for further dilution and i.p. injections” for “PBS for i.p. injections”, “formula (I): 100 mg/kg (as” for “formula (I): 50 mg/kg (as”
After one month of treatment, the tumor incidence and weight are determined in each of the mice. At the same time, the ascite incidence and volume are also determined.

human ovarian carcinoma = details: in vitro and in vivo; cited from earlier work

| Compound | Body weight (g) Mean ± S.D. (IGROV cells) [g] | Tumor incidence (IGROV cells) | Tumor weight (g) Median (range) (IGROV cells) | Body weight (g) Mean ± S.D. (HeyA8-MDR cells) [g] | Tumor incidence (HeyA8-MDR cells) | Tumor weight (g) Median (range) (HeyA8-MDR cells) | Ascite incidence (SKOV3ip1 cells) | Ascites (mL) Median (range) (SKOV3ip1 cells) | Body weight (g) Mean ± S.D. (SKOV3ip1 cells) [g] | Tumor incidence (SKOV3ip1 cells) | Tumor weight (g) Median (range) (SKOV3ip1 cells) | further results |
| --- | --- | --- | --- | --- | --- | --- | --- | --- | --- | --- | --- | --- |
| CCCCN(CCCC)C(=O)CN1C[C@H](c2ccc3c(c2)OCO3)[C@@H](C(=O)O)[C@@H]1c1ccc(OC)cc1 [ABT-627, atrasentan] | – | – | – | – | – | – | – | – | – | – | – | Effect of combination with paclitaxel (ovarian cancer): additive antitumor, apoptotic and antiangiogenic effects |
| CCCC[C@@H](NC(=O)[C@@H](Cc1cn(C(=O)OC)c2ccccc12)NC(=O)[C@H](CC(C)(C)C)NC(=O)N1[C@H](C)CCC[C@@H]1C)C(=O)O [BQ 788] | – | – | – | – | – | – | – | – | – | – | – | Inhibition of cell adhesiveness (ovarian tumor cells): ineffective |
| CCCNS(=O)(=O)Nc1ncnc(OCCOc2ncc(Br)cn2)c1-c1ccc(Br)cc1 [CF(I), macitentan] | 31.0 ± 4.4 | 10/10 | 0.7 (0.4-1.3) g | 27.0 ± 2.2 | 6/10 | 0.1 (0-0.3) g | 7/10 | 0.4 (0-4.7) mL | 25.5 ± 2.6 | 7/10 | 2.3 (0-4.6) g | Ascite incidence (SKOV3ip1 cells; listed as compound of formula (I)): 7 out of 10 |
| CC(=O)O[C@H]1C(=O)[C@@]2(C)[C@H]([C@H](OC(=O)c3ccccc3)[C@]3(O)C[C@H](OC(=O)[C@H](O)[C@@H](NC(=O)c4ccccc4)c4ccccc4)C(C)=C1C3(C)C)[C@]1(OC(C)=O)CO[C@@H]1C[C@@H]2O [Paclitaxel] | 28.5 ± 2.4 | 9/10 | 0.5 (0-0.9) g | 27.7 ± 3.7 | 10/10 | 1.0 (0.5-2.3) g | 4/9 | 0.1 (0-0.2) mL | 23.6 ± 1.9 | 9/9 | 0.4 (0.1-0.5) g | Ascite incidence (SKOV3ip1 cells; listed as paclitaxel): 4 out of 9; Tumor incidence (SKOV3ip1 cells; listed as paclitaxel): all mice still had tumors |
| COc1nc(C)cnc1NS(=O)(=O)c1cccnc1-c1ccc(-c2nnco2)cc1 [ZD4054] | – | – | – | – | – | – | – | – | – | – | – | Effect on tumor growth and paclitaxel activity (human ovarian carcinoma): inhibits tumor growth and enhances paclitaxel activity |
